PubChem BioAssay AID330 (DTP/NCI, 2004)
“And” between values parts separate entries of the source, which are not always exact repeats. Equal values may be shown once. Inconclusive results and toxic doses are left out.

Test system: P388 leukemia ip, CD2F1 mice, survival T/C
Test: NCI In Vivo Anticancer Drug Screen. Data for tumor model P388 Leukemia (intraperitoneal) in CD2F1 (CDF1) mice
Conditions: endpoint: median survival time, higher = longer survival
Summary of the method: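 Mice carrying the transplanted tumor received test compound or vehicle. Survival was recorded in each group, and the value is the treated-group measurement divided by that of the vehicle-treated control group.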

[1] = dose: 50.0 mg/kg/injection, schedule: Q01DX009 (ip), vehicle: saline with Tween-80
[2] = dose: 100.0 mg/kg/injection, schedule: Q01DX009 (ip), vehicle: saline with Tween-80
[3] = dose: 200.0 mg/kg/injection, schedule: Q01DX009 (ip), vehicle: saline with Tween-80
[4] = dose: 50.0 mg/kg/injection, schedule: Q01DX009 (ip), vehicle: saline
[5] = dose: 100.0 mg/kg/injection, schedule: Q01DX009 (ip), vehicle: saline
[6] = dose: 100.0 mg/kg/injection, schedule: Q04DX003 (ip), vehicle: saline
[7] = dose: 200.0 mg/kg/injection, schedule: Q04DX003 (ip), vehicle: saline
[8] = dose: 25.0 mg/kg/injection, schedule: Q01DX009 (ip), vehicle: saline with Tween-80
[9] = dose: 25.0 mg/kg/injection, schedule: Q01DX009 (ip), vehicle: saline
[10] = dose: 50.0 mg/kg/injection, schedule: Q01DX005 (ip), vehicle: Klucel (hydroxypropylcellulose) (HPC)
[11] = dose: 100.0 mg/kg/injection, schedule: Q01DX005 (ip), vehicle: Klucel (hydroxypropylcellulose) (HPC)
[12] = dose: 200.0 mg/kg/injection, schedule: Q01DX005 (ip), vehicle: Klucel (hydroxypropylcellulose) (HPC)
[13] = dose: 25.0 mg/kg/injection, schedule: Q01DX005 (ip), vehicle: Klucel (hydroxypropylcellulose) (HPC)
[14] = dose: 50.0 mg/kg/injection, schedule: Q01DX005 (ip), vehicle: saline with Tween-80
[15] = dose: 100.0 mg/kg/injection, schedule: Q01DX005 (ip), vehicle: saline with Tween-80
[16] = dose: 200.0 mg/kg/injection, schedule: Q01DX005 (ip), vehicle: saline with Tween-80
[17] = dose: 60.0 mg/kg/injection, schedule: Q01DX005 (ip), vehicle: saline with Tween-80
[18] = dose: 120.0 mg/kg/injection, schedule: Q01DX005 (ip), vehicle: saline with Tween-80
[19] = dose: 240.0 mg/kg/injection, schedule: Q01DX005 (ip), vehicle: saline with Tween-80
[20] = dose: 60.0 mg/kg/injection, schedule: Q01DX005 (ip), vehicle: Klucel (hydroxypropylcellulose) (HPC)
[21] = dose: 120.0 mg/kg/injection, schedule: Q01DX005 (ip), vehicle: Klucel (hydroxypropylcellulose) (HPC)
[22] = dose: 240.0 mg/kg/injection, schedule: Q01DX005 (ip), vehicle: Klucel (hydroxypropylcellulose) (HPC)

CC(C)N(B1NCC(C)N1C(C)C)C(C)C (centres undefined)
T/C (dose: 100.0 mg/kg/injection, schedule: Q01DX001 (ip), vehicle: saline): 101 % of control | T/C (dose: 200.0 mg/kg/injection, schedule: Q01DX001 (ip), vehicle: saline): 102 % of control | T/C (dose: 400.0 mg/kg/injection, schedule: Q01DX001 (ip), vehicle: saline): 100 % of control

COc1ccc([N+](=O)[O-])cc1NC(=O)N(C)Cc1ccco1
T/C [1]: 103 % of control | T/C [2]: 109 % of control | T/C [3]: 106 % of control

CCC[CH2][Sn]([CH2]CCC)([O]C(C)=O)[c]1ccccc1
T/C (dose: 1.56 mg/kg/injection, schedule: Q01DX009 (ip), vehicle: saline): 97 % of control | T/C (dose: 3.12 mg/kg/injection, schedule: Q01DX009 (ip), vehicle: saline): 103 % of control | T/C (dose: 6.25 mg/kg/injection, schedule: Q01DX009 (ip), vehicle: saline): 96 % of control | T/C [4]: 97 % of control | T/C [5]: 95 % of control | T/C (dose: 200.0 mg/kg/injection, schedule: Q01DX009 (ip), vehicle: saline): 100 % of control

O=c1n[n+]([O-])ccn1C1OC(CO)C(O)C1O (centres undefined)
T/C [4]: 119 % of control and 123 % of control | T/C [5]: 106 % of control | T/C (dose: 300.0 mg/kg/injection, schedule: Q01DX009 (ip), vehicle: saline): 169 % of control and 170 % of control | T/C (dose: 450.0 mg/kg/injection, schedule: Q01DX009 (ip), vehicle: saline): 96 % of control

Cc1ccc2ccc3ccc(CCl)nc3c2n1
T/C (dose: 3.12 micromoles/kg, schedule: Q01DX005 (ip), vehicle: other): 95 % of control | T/C (dose: 6.25 micromoles/kg, schedule: Q01DX005 (ip), vehicle: other): 99 % of control | T/C (dose: 12.5 micromoles/kg, schedule: Q01DX005 (ip), vehicle: other): 102 % of control

CCOC(=O)c1cnc(Sc2ccc([N+](=O)[O-])cc2[N+](=O)[O-])nc1N
T/C [6]: 93 % of control | T/C [7]: 100 % of control | T/C (dose: 400.0 mg/kg/injection, schedule: Q04DX003 (ip), vehicle: saline): 98 % of control

CC(=O)Nc1nc(NC(C)=O)c(N=O)c(NC(C)=O)n1
T/C [8]: 103 % of control | T/C [9]: 108 % of control | T/C [1]: 103 % of control | T/C [4]: 108 % of control and 120 % of control | T/C [2]: 94 % of control | T/C [5]: 112 % of control

O=C1CCCN1.O=C1CCCN1.[Br][Co][Br]
T/C [8]: 104 % of control | T/C [1]: 122 % of control

Nc1ccc2c(c1N)C(=O)c1ccccc1C2=O
T/C [10]: 101 % of control | T/C [11]: 100 % of control | T/C [12]: 100 % of control

COc1ccc2nc3cc(Cl)ccc3c(NCCCCCCNc3c4ccc(Cl)cc4nc4ccc(OC)nc34)c2n1
T/C (dose: 50.0 mg/kg/injection, schedule: Q01DX009 (ip), vehicle: Klucel (hydroxypropylcellulose) (HPC)): 93 % of control | T/C (dose: 100.0 mg/kg/injection, schedule: Q01DX009 (ip), vehicle: Klucel (hydroxypropylcellulose) (HPC)): 105 % of control

O=C1NC(=S)N/C1=C\c1ccc(Cl)c(Cl)c1
T/C [2]: 95 % of control | T/C [3]: 94 % of control | T/C (dose: 400.0 mg/kg/injection, schedule: Q01DX009 (ip), vehicle: saline with Tween-80): 91 % of control

C=C(Cl)C(=NC(C)(C)C)Nc1ccc(Cl)cc1
T/C (dose: 6.25 mg/kg/injection, schedule: Q01DX005 (ip), vehicle: Klucel (hydroxypropylcellulose) (HPC)): 114 % of control | T/C (dose: 12.5 mg/kg/injection, schedule: Q01DX005 (ip), vehicle: Klucel (hydroxypropylcellulose) (HPC)): 117 % of control | T/C [13]: 112 % of control | T/C [10]: 110 % of control | T/C [11]: 115 % of control

CC1=C(C#N)C(C)(CCl)C(C#N)=C(C)N1C
T/C (dose: 25.0 mg/kg/injection, schedule: Q01DX009 (ip), vehicle: other): 96 % of control | T/C (dose: 50.0 mg/kg/injection, schedule: Q01DX009 (ip), vehicle: other): 115 % of control | T/C (dose: 100.0 mg/kg/injection, schedule: Q01DX009 (ip), vehicle: other): 103 % of control

Cc1ccc(O)c(C(=NCCCCN=C(c2ccccc2)c2cc(C)ccc2O)c2ccccc2)c1.[Ni]
T/C [13]: 97 % of control | T/C [10]: 97 % of control | T/C [11]: 103 % of control | T/C [12]: 94 % of control

Cn1cnc([N+](=O)[O-])c1N
T/C (dose: 12.5 mg/kg/injection, schedule: Q01DX009 (ip), vehicle: saline with Tween-80): 106 % of control | T/C [8]: 119 % of control | T/C [1]: 103 % of control | T/C [2]: 106 % of control

NC(=O)Oc1ccccc1
T/C (dose: 100.0 mg/kg/injection, schedule: Q04DX003 (ip), vehicle: saline with Tween-80): 100 % of control | T/C (dose: 200.0 mg/kg/injection, schedule: Q04DX003 (ip), vehicle: saline with Tween-80): 104 % of control | T/C (dose: 400.0 mg/kg/injection, schedule: Q04DX003 (ip), vehicle: saline with Tween-80): 100 % of control

Cc1cc(C)c2c(c1)CC(C)(C)CC2(O)C1CCCCN1 (centres undefined)
T/C [10]: 100 % of control | T/C [11]: 108 % of control

NC(=O)CSc1nnc2ccccn12
T/C (dose: 50.0 mg/kg/injection, schedule: Q04DX003 (ip), vehicle: saline): 92 % of control | T/C [6]: 100 % of control | T/C [7]: 104 % of control

COC(=O)N1[C@@H]2C=CC=CC=C2[C@@H](OC)N1C(=O)OC
T/C [14]: 101 % of control | T/C [15]: 103 % of control | T/C [16]: 103 % of control

O=C(Nc1ncc([N+](=O)[O-])s1)c1ccc([N+](=O)[O-])cc1
T/C (dose: 12.5 mg/kg/injection, schedule: Q01DX009 (ip), vehicle: saline): 100 % of control | T/C [9]: 97 % of control | T/C [4]: 104 % of control

O=C(COc1nccc2nc(-c3ccccc3)cn12)c1ccccc1
T/C (dose: 1.56 mg/kg/injection, schedule: Q01DX009 (ip), vehicle: Klucel (hydroxypropylcellulose) (HPC)): 96 % of control | T/C (dose: 3.12 mg/kg/injection, schedule: Q01DX009 (ip), vehicle: Klucel (hydroxypropylcellulose) (HPC)): 89 % of control | T/C (dose: 6.25 mg/kg/injection, schedule: Q01DX009 (ip), vehicle: Klucel (hydroxypropylcellulose) (HPC)): 89 % of control and 92 % of control | T/C (dose: 12.5 mg/kg/injection, schedule: Q01DX001 (ip), vehicle: Klucel (hydroxypropylcellulose) (HPC)): 95 % of control | T/C (dose: 25.0 mg/kg/injection, schedule: Q01DX001 (ip), vehicle: Klucel (hydroxypropylcellulose) (HPC)): 95 % of control | T/C (dose: 50.0 mg/kg/injection, schedule: Q01DX001 (ip), vehicle: Klucel (hydroxypropylcellulose) (HPC)): 96 % of control

CCCN(CCC)CC(=O)NC1c2ccccc2Oc2ccccc21
T/C [10]: 101 % of control | T/C [11]: 101 % of control | T/C [12]: 90 % of control

[Cl][Eu][Cl]
T/C [4]: 87 % of control | T/C [5]: 91 % of control

[N-]=[N+]=Nc1ccnc2cc(C(F)(F)F)ccc12
T/C [17]: 103 % of control | T/C [18]: 100 % of control | T/C [19]: 96 % of control

O=C(O)c1cnc2cc3c(cc2c1Nc1cccc(C(F)(F)F)c1)OCO3
T/C [20]: 99 % of control | T/C [21]: 96 % of control | T/C [22]: 96 % of control

O=C(CC1(O)C(=O)Nc2ccc([N+](=O)[O-])cc21)c1ccco1 (centres undefined)
T/C [20]: 96 % of control | T/C [21]: 100 % of control | T/C [22]: 99 % of control

COC(=O)C(=O)c1c(C(=O)OC)nc2nnc(N)n2c1C1CC1
T/C [17]: 100 % of control | T/C [18]: 107 % of control | T/C [19]: 105 % of control

Cn1nc(C(N)=O)c(=O)[nH]c1=O
T/C [14]: 104 % of control | T/C [15]: 97 % of control | T/C [16]: 103 % of control

O=C1CC(CO)CC2c3[nH]c4ccccc4c3CCN12 (centres undefined)
T/C (dose: 17.5 mg/kg/injection, schedule: Q01DX005 (ip), vehicle: Klucel (hydroxypropylcellulose) (HPC)): 108 % of control | T/C (dose: 35.0 mg/kg/injection, schedule: Q01DX005 (ip), vehicle: Klucel (hydroxypropylcellulose) (HPC)): 91 % of control | T/C (dose: 70.0 mg/kg/injection, schedule: Q01DX005 (ip), vehicle: Klucel (hydroxypropylcellulose) (HPC)): 97 % of control

Cc1nc(NC(=O)C(C)(C)C)sc1[N+](=O)[O-]
T/C [1]: 101 % of control | T/C [2]: 92 % of control | T/C [3]: 94 % of control

CCN(CC)C(=O)C1(C)NS(=O)(=O)c2ccccc2C1=O (centres undefined)
T/C [8]: 106 % of control | T/C [1]: 98 % of control and 110 % of control and 96 % of control | T/C [2]: 98 % of control and 110 % of control and 97 % of control | T/C [3]: 95 % of control
